The source of these data is ChEMBL document CHEMBL5241097, “Synthetically-tailored and nature-derived dual COX-2/5-LOX inhibitors: Structural aspects and SAR” (Eur J Med Chem, 2021).

The species named for one test is Homo sapiens. The test is described as follows: Selectivity index, ratio of IC50 for inhibition of human COX1 to IC50 for inhibition of human COX2.
For test [1], the target named is T1, Polyunsaturated fatty acid 5-lipoxygenase (Homo sapiens, UniProt P09917).
T1 sequence (P09917 whole entry): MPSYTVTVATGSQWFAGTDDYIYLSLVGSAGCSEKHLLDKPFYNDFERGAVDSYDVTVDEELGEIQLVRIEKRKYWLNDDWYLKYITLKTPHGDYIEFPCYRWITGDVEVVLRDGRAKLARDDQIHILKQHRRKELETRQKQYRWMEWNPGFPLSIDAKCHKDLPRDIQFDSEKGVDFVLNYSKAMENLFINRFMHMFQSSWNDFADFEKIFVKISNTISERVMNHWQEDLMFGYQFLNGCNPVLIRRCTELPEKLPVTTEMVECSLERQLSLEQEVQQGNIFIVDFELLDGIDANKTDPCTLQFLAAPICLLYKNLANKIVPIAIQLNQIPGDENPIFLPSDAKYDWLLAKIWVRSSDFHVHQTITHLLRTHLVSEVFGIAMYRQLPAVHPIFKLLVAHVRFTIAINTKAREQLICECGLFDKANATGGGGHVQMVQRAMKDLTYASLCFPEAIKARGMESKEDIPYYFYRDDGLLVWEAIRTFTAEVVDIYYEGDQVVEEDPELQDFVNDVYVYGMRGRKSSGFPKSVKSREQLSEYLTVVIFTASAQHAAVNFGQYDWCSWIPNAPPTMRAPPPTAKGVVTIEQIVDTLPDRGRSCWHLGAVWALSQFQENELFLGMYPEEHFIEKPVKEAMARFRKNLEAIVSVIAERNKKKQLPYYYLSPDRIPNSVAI
Put plainly: Inhibition of 5-LOX (unknown origin) using linoleic acid as substrate preincubated for 5 mins followed by substrate addition by spectrophotometric assay.

Test [2] has as its target T2, Prostaglandin G/H synthase 2 (Homo sapiens, UniProt P35354).
T2 sequence (P35354 whole entry): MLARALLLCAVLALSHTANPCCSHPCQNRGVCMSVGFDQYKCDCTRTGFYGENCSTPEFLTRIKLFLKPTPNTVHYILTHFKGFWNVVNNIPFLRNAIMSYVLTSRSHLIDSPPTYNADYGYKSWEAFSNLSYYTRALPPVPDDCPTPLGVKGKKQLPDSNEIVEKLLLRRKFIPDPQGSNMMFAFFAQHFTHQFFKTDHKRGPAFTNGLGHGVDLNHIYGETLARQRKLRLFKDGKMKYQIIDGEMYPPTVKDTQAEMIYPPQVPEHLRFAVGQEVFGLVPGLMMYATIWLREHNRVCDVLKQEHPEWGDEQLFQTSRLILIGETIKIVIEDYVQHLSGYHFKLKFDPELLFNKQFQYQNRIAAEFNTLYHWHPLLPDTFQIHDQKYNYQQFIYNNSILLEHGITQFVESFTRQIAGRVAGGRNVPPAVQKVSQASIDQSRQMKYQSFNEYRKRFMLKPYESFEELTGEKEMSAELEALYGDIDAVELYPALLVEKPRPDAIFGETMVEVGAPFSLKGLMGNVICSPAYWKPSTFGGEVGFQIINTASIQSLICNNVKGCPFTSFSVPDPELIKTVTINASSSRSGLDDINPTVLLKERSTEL
The test is described as follows: Inhibition of recombinant human COX-2 using arachidonic acid as substrate preincubated for 10 mins followed by substrate addition and measured after 2 mins by ELISA.

In test [3] the test system is Rattus norvegicus. The test is described as follows: Antiinflammatory activity in Wistar rat carragenan-induced paw edema model assessed as reduction in edema thickness at 50 mg/kg, po and measured after 2 hrs. Format: functional. Also on record: scale not given: the % may be the effect or the level left.
Test [4] deals with Rattus norvegicus. The test is described as follows: Antiinflammatory activity in po dosed Sprague-Dawley rat assessed as reduction in carragenan-induced paw edema and measured after 4 hrs by vernier caliper method. The class given is functional. Set-up: scale not given: the % may be the effect or the level left.
In test [5] the target is T1, Polyunsaturated fatty acid 5-lipoxygenase. The test is described as follows: Inhibition of 5-LOX (unknown origin) by enzyme immune assay.
Test [6] can be described thus: Selectivity index, ratio IC50 for inhibition of ovine COX-1 to IC50 for inhibition of recombinant human COX-2.
For test [7], the target named is T2, Prostaglandin G/H synthase 2. The test is described as follows: Inhibition of recombinant human COX-2 by enzyme immune assay.
In test [8] the target is T1, Polyunsaturated fatty acid 5-lipoxygenase. The test is described as follows: Inhibition of 5-LOX (unknown origin) by colorimetric assay.
In test [9] the target is T2, Prostaglandin G/H synthase 2. Put plainly: Inhibition of COX-2 (unknown origin) using arachidonic acid as substrate preincubated for 5 mins followed by substrate addition by colorimetric assay.
A short description of test [10]: Inhibition of soybean 5-LOX using arachidonic acid as substrate preincubated for 5 mins followed by substrate addition and measured after 5 mins by microplate spectrophotometric analysis. Set-up: species or system Glycine max.
Another test deals with DU-145. Put plainly: Antiproliferative activity against human DU-145 cells assessed as reduction in cell viability incubated for 48 hrs by MTT assay. Format: functional, cell-based. The following applies: DU-145, 48 h. For orientation: Tetrazolium dyes change colour on reduction, which living cells bring about.
The target in test [11] is T2, Prostaglandin G/H synthase 2. Put plainly: Inhibition of COX-2 (unknown origin) using arachidonic acid as substrate preincubated for 5 mins followed by substrate addition and measured after 20 mins by colorimetric assay.
The target is the same in test [12]. The test is described as follows: Inhibition of recombinant human COX-2 using arachidonic acid as substrate preincubated for 10 mins followed by substrate addition and measured after 2 mins by Ellman's reagent based ELISA. For orientation: In Ellman's method for cholinesterases, released thiocholine reacts with DTNB.
Test [13] deals with T1, Polyunsaturated fatty acid 5-lipoxygenase. Put plainly: Inhibition of recombinant human 5-LOX using arachidonic acid as substrate incubated for 10 mins by spectrophotometric analysis.
For test [14], the target named is T2, Prostaglandin G/H synthase 2. Put plainly: Inhibition of COX-2 (unknown origin).
Test [15] has as its target T1, Polyunsaturated fatty acid 5-lipoxygenase. Put plainly: Inhibition of 5-LOX (unknown origin).
Test [16] concerns the target Prostaglandin G/H synthase 1 (Homo sapiens, UniProt P23219). The test is described as follows: Inhibition of recombinant human COX-1 using arachidonic acid as substrate by ELISA.
In test [17] the target is T1, Polyunsaturated fatty acid 5-lipoxygenase. The test is described as follows: Inhibition of 5-LOX (unknown origin) by fluorometric analysis.
Test [18] has as its target T2, Prostaglandin G/H synthase 2. The test is described as follows: Inhibition of recombinant human COX-2 using arachidonic acid as substrate by ELISA. In general terms: An ELISA detects its analyte on a solid surface through an enzyme-linked reagent.
Test [19] deals with Rattus norvegicus. Put plainly: Antiinflammatory activity in carragenan-induced paw edema rat model assessed as reduction in edema thickness at 28 microg/kg, ip and measured after 4 hrs by digital Vernier caliper analysis. Also on record: scale not given: the % may be the effect or the level left. Format: functional. The following applies: dose 28 µg/kg.
The target in test [20] is T2, Prostaglandin G/H synthase 2. The test is described as follows: Inhibition of COX-2 (unknown origin) using arachidonic acid as substrate preincubated for 15 mins followed by substrate addition by colorimetric assay.
Test [21] in a line: Inhibition of soybean 5-LOX using linoleic acid as substrate by spectrophotometric analysis. Also on record: species or system Glycine max.

Prostaglandin G/H synthase 1, sequence (P23219 whole entry): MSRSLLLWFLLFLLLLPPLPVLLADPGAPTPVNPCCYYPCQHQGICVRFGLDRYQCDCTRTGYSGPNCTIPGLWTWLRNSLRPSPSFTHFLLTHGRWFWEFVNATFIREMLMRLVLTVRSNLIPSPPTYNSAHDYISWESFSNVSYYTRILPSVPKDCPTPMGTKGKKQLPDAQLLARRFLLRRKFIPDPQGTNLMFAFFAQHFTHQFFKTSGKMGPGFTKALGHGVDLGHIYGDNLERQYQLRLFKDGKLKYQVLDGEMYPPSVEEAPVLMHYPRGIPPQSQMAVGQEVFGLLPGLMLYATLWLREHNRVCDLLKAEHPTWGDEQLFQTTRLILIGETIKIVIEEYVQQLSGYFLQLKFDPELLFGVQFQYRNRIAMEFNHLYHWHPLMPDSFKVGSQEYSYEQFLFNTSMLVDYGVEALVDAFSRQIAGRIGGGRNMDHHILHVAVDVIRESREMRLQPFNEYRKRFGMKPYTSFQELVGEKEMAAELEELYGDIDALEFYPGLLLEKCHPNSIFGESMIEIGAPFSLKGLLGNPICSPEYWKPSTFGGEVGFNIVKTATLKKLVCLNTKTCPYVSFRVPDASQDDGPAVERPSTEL

Regarding `Cc1ccc(-c2ncc(Cl)cc2-c2ccc(S(C)(=O)=O)cc2)cn1`, in the test filed under Homo sapiens, the Ratio IC50 was 91.3.

For the compound `O=C(/N=C1\SC=C(c2ccc([N+](=O)[O-])cc2)C1c1ccccc1)c1cccc2ccccc12` (stereo not drawn), the IC50 in test [1] came out at 0.36 µM; in test [2] it was 0.08 µM. For the same compound, the Ratio IC50 in the test filed under Homo sapiens stood at 90.

As for `Cc1ccc(-c2cc(C(F)(F)F)nn2-c2ccc(S(N)(=O)=O)cc2)cc1` [CELECOXIB], the Activity was 15.7% with Rattus norvegicus [3] and 73.56% with Rattus norvegicus [4].

For `O=C(NC1CCCCC1)c1cc(/N=C/c2cc(O)ccc2O)ccc1O`, the values for the IC50 in test [5] and in test [7] were 11.3 µM and 0.11 µM, respectively. Moreover, the Ratio IC50 in [6] worked out at 120.

Turning to `N=C1/C(=N\Nc2ccc(S(N)(=O)=O)cc2)C(N)=NN1c1ccccc1C(=O)O`, the half-inhibitory concentration (IC50) was 2.73 µM in [8] and 1.12 µM in test [9]. Also, the Activity in the test on Rattus norvegicus [3] is 15%.

For `CCc1ccc(-c2ccc(-n3cc(CNC(=O)C(=O)c4c[nH]c5ccccc45)nn3)cc2)cc1`, the IC50 in test [10] came out at 7.73 µM; in the test on DU-145 it was 8.17 µM; in [11] it was 0.12 µM.

`C=C1CCCC2C1(C)CCC(C)C2(C)CCC1=CC(=O)OC1O` (stereo not drawn): the IC50 came to 8.49 µM in [12] and 12.7 µM in test [13].

Turning to `COc1ccc(-c2nc(-c3cn(C)c4ccccc34)c(C(=O)c3ccc(C#N)cc3)s2)cc1OC`, the figures for the IC50 in test [14] and in [15] were 2.1 µM and 1.37 µM, respectively.

Take `CC1=CCCC2C1(C)CCC(C)C2(C)CC/C(=C\C(=O)O)CO` (stereo not drawn): the IC50 in test [12] turned out to be 12.7 µM; in test [13], 30.5 µM.

Consider `COc1cc(/C=c2\c(=O)[nH]n3c(=O)c4ccccc4nc23)cc(OC)c1OC`, for which the IC50 in test [16] was determined as 0.668 µM; in test [17], 2.3 µM; in test [18] it was 0.047 µM.

On to `Nc1ccc(O)c(C(=O)NC2CCCCC2)c1`, for which the Activity with Rattus norvegicus [19] is 102%.

Regarding `CCCCNC(=O)c1cc(NCc2cc(O)ccc2O)ccc1O`, in the test on Rattus norvegicus [19], the Activity is given as 40.05%. Besides, the values for the IC50 in test [5] and in test [7] were 10.5 µM and 0.1 µM, respectively. Besides, in [6], the Ratio IC50 amounted to 135.

`O=Cc1ccc(O)c(O)c1` [PROTOCATECHUALDEHYDE] had an IC50 in [14] of 19.7 µM.

For `C=C1C(O)CCC2C1(C)CCC(C)C2(C)CCC1=CC(=O)OC1O` (stereo not drawn), the IC50 in test [12] was 12.8 µM; in test [13], 16.5 µM.

`Cc1c(C(=O)N2CCN(c3ccccc3)CC2)nc2ccc(Cl)cc2c1O`: in test [1], half-maximal inhibition (IC50) was put at 5.91 µM. In addition, in the test filed under Homo sapiens, the Ratio IC50 came out at 7.61.

For `CC(=O)OC[C@@H]1O[C@@H](n2cc(CNC(=O)C(=O)c3cn(S(=O)(=O)c4ccc(C)cc4)c4ccccc34)nn2)[C@H](OC(C)=O)[C@@H](OC(C)=O)[C@H]1OC(C)=O`, the results for the IC50 (in test [10]; in the test on DU-145; in [11]) were 7.46 µM, 18.5 µM and 0.12 µM, respectively.

With `COc1cc([C@@H]2c3cc4c(cc3[C@@H](O[C@@H]3O[C@@H]5CO[C@@H](C)O[C@H]5[C@H](O)[C@H]3O)[C@H]3COC(=O)[C@H]23)OCO4)cc(OC)c1O` [ETOPOSIDE], the IC50 with DU-145 amounted to 9.8 µM.

Consider `O=C(c1ccc(-c2nc(CSc3nc4ccccc4s3)no2)cc1)N1CCOCC1`, for which the IC50 in test [20] was 5 µM; in test [21], 5.6 µM.

On to `COc1ccc(/C=c2\c(=O)[nH]n3c(=O)c4ccccc4nc23)cc1OC`, for which the figures for the IC50 in [16], in [17] and in test [18] were 0.684 µM, 1 µM and 0.284 µM, respectively.

By IC50 is commonly meant the concentration that inhibits the measured activity by half.
